This note sets out measurements from patent US11856970B2, “Bacillus subtilis for animal feed” (CHR. HANSEN A/S, priority 2018, dated 2024).

The structures appear in SMILES notation.

This assay relates to E. coli. Put plainly: Agar well diffusion, screening for inhibition of E. coli. In kind it is cell-based, Escherichia coli. The following applies: E. coli O147:K89 F4 H19. As to the method:
The seven pathogenic E. coli and Salmonella spp. strains were each suspended in MRD until McFarland 0.5 was obtained and 10 μL of each pathogen suspension was diluted in approximately 35 ml melted LB agar (max. 42° C.). The inoculated agar was poured into Omni Tray Single-well plates, Immuno TSP plates were attached. After drying the immune TSP plates were removed and the wells were inoculated with 5 μL overnight culture (triplicates) of Bacillus test strains. The plates were incubated aerobically at 30° C. for 48 hours. For the E. coli plates, two replicate plates were used (n=2); for the 10 Salmonella spp. plates, one replicate plate was used (n=1).
The following positioning of the Bacillus subtilis strains on the plates containing the pathogens was used:
The concentration of E. coli and Salmonella spp. in the inoculated agar was estimated to be 2.9×10^4 CFU/ml.

For `O=C(O)c1cn(C2CC2)c2cc(N3CCNCC3)c(F)cc2c1=O` [ciprofloxacin], the “inhibition zones (FIG. 2, in words)” value was “Inhibition is also seen”.
